# Laboratory results published in patent publication US20100105685A1, “S-Nitrosothiol Compounds and Related Derivatives” (Galleon Pharmaceuticals, Inc., priority 2006, published 2010).
# Entries after “also recorded” stand apart in the source; their conditions may differ.
# Assays:
# [1] = tested on: fentanyl-induced respiratory depression; assay: Fentanyl-induced respiratory depression model to assess restoration of ventilatory control; format: in vivo, Sprague-Dawley male rats; details: rats; for restoration of ventilatory control / reversing the fentanyl-induced respiratory depression: fentanyl 75 to 150 micrograms per kilogram, intravenous infusion
# [2] = cited from earlier work
# apnea episodes = details: cited from earlier work
smiles,measurement,setting,value
"O=C(O)CNC(=O)[C@H](CS)Nc1nccs1 [GLN 10,015]",restoration of ventilatory control / reversing the fentanyl-induced respiratory depression,[1],not be effective; also recorded: does not restore
CC(=O)N[C@@H](CS)C(=O)O [N-acetyl-L-cysteine],absorption after oral administration,[2],poorly absorbed
same,first pass metabolism by the liver,"[2]; oral administration, destroys most of the parent drug",extensive first pass metabolism
CC(=O)Nc1nnc(S(N)(=O)=O)s1 [acetazolamide],apnea episodes after treatment,"apnea episodes; central apnea patients, low doses, after one month of treatment (25.5 pre-treatment)",6.8
same,decrease in apnea episodes,"apnea episodes; central apnea patients, low doses, after one month of treatment",73%
same,reduction in apnea episodes,apnea episodes; patients that had predominantly obstructive sleep apnea,about 25%
"O=C(O)CCCCN[C@@H](CS)C(=O)O [GLN 10,013]",restoration of ventilatory control / reversing the fentanyl-induced respiratory depression,[1],successfully restores ventilatory control
same,"reversal of respiratory depression, acute phase","[1]; fentanyl-induced, acute phase (0 to 5 minutes)",reverse respiratory depression
same,"reversal of respiratory depression, chronic phases","[1]; fentanyl-induced, chronic phases (10 to 50 minutes)",reverse respiratory depression
